Read-outs that look alike come from different tables or passages of the source.
How the values were obtained:
[1] = biological target: T1, Recombinant human NK3 (hNK3) receptor (Homo sapiens, UniProt P29371); test: NK3 receptor binding, [3H]SR142801 displacement, membrane preparations
T1 construct: expressed in transfected cells
T1 sequence (P29371 1-465): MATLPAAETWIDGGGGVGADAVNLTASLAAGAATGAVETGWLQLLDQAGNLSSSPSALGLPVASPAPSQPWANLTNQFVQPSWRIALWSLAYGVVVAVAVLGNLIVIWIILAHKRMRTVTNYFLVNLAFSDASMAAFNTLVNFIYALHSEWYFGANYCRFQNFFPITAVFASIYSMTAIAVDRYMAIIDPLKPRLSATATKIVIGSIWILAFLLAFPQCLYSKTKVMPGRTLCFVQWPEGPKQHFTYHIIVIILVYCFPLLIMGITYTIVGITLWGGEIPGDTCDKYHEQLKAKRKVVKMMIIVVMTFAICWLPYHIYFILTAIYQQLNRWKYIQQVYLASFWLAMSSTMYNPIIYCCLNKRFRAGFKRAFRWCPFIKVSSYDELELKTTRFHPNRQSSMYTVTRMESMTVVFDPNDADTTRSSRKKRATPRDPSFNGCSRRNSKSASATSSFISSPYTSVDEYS
Method in brief: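 hNK3 membranes (~2.5 μg/well) incubated 90 min at room temperature in 50 mM Tris-HCl pH 7.4 with 0.1% BSA, 4 mM MnCl2, 1 μM phosphoramidon. Nonspecific binding defined with 10 μM SB222200; bound [3H]SR142801 separated by filtration on PEI-soaked GF/C filters and counted by scintillation.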

human NK1 receptor = human NK1 receptor (Homo sapiens, UniProt P25103); test: NK1 receptor binding, [3H]substance P displacement, CHO cell membranes
[2] = second value of the cell pKi NK1/NK3, hNK3 receptor, [3H]SR142801
[3] = first value of the cell pKi NK1/NK3, human NK1 receptor, [3H]substance P
[4] = second value of the cell NK1/NK3, read-out: pKi NK3 (converted)
[5] = first value of the cell NK1/NK3, read-out: pKi NK1 (converted)

Chain of human NK1 receptor (P25103 whole entry): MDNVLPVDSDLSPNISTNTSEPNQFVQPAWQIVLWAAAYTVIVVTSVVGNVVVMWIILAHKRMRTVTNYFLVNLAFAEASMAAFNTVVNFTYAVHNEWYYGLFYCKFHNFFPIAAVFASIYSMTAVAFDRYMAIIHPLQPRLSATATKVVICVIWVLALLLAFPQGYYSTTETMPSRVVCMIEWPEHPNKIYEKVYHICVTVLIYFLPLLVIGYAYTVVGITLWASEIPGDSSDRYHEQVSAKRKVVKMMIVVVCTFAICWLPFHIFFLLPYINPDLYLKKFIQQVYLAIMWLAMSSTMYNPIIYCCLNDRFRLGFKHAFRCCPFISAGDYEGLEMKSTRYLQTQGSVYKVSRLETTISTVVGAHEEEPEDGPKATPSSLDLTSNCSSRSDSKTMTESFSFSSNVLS

Structure (SMILES) | Ki [1, 2] | Ki (human NK1 receptor; [3]) | Ki [1, 4] | Ki (human NK1 receptor; [5])
CN(C(=O)C(C)(C)c1cc(C(F)(F)F)cc(C(F)(F)F)c1)c1cnc(N2C[C@H](O)C[C@H]2CO)cc1-c1ccc(Cl)cc1Cl [Example 136, (2S,4R)-2-(3,5-Bis-trifluoromethyl-phenyl)-N-[4-(2,4-dichloro-phenyl)-6-(4-hydroxy-2-hydroxymethyl-pyrrolidin-1-yl)-pyridin-3-yl]-N-methyl-isobutyramide] | 1.45 nM | 1.62 nM |  | 
Cc1cc(F)ccc1-c1cc(N2CC(O)C2)ncc1N(C)C(=O)C(C)(C)c1cc(C(F)(F)F)cc(C(F)(F)F)c1 [Example 162, 2-(3,5-Bis-trifluoromethyl-phenyl)-N-[4-(4-fluoro-2-methyl-phenyl)-6-(3-hydroxy-azetidin-1-yl)-pyridin-3-yl]-N-methyl-isobutyramide] | 18.6 nM | 2.09 nM |  | 
CN(C(=O)C(C)(C)c1cc(C(F)(F)F)cc(C(F)(F)F)c1)c1cnc(N2C[C@@H](O)C[C@H]2CO)cc1-c1cccc(Cl)c1Cl [Example 253, (2S,4S)-2-(3,5-Bis-trifluoromethyl-phenyl)-N-[4-(2,3-dichloro-phenyl)-6-(4-hydroxy-2-hydroxymethyl-pyrrolidin-1-yl)-pyridin-3-yl]-N-methyl-isobutyramide] |  |  | 3.16 nM | 2.88 nM
Cc1cc(F)ccc1-c1cc(N2CCC[C@H]2C(C)(C)O)ncc1N(C)C(=O)C(C)(C)c1cc(C(F)(F)F)cc(C(F)(F)F)c1 [Example 159, (S)-2-(3,5-Bis-trifluoromethyl-phenyl)-N-{4-(4-fluoro-2-methyl-phenyl)-6-[2-(1-hydroxy-1-methyl-ethyl)-pyrrolidin-1-yl]-pyridin-3-yl}-N-methyl-isobutyramide] | 9.55 nM | 1.78 nM |  | 
Cc1c(F)cccc1-c1cc(N2CC[C@H](O)[C@H]2CO)ncc1N(C)C(=O)C(C)(C)c1cc(C(F)(F)F)cc(C(F)(F)F)c1 [Example 275, (2R,3S)-2-(3,5-Bis-trifluoromethyl-phenyl)-N-[4-(3-fluoro-2-methyl-phenyl)-6-(3-hydroxy-2-hydroxymethyl-pyrrolidin-1-yl)-pyridin-3-yl]-N-methyl-isobutyramide] |  |  | 0.575 nM | 1.48 nM
CN(CCO)c1cc(-c2ccc(F)cc2)c(N(C)C(=O)C(C)(C)c2cc(C(F)(F)F)cc(C(F)(F)F)c2)cn1 [Example 115, 2-(3,5-bis-trifluoromethyl-phenyl)-N-{4-(4-fluoro-phenyl)-6-[(2-hydroxy-ethyl)-methyl-amino]-pyridin-3-yl}-N-methyl-isobutyramide] | 30.2 nM | 1.86 nM |  | 
CN(C(=O)C(C)(C)c1cc(C(F)(F)F)cc(C(F)(F)F)c1)c1cnc(N2C[C@H](O)C[C@H]2CO)cc1-c1ccc(F)cc1Cl [Example 221, (2S,4R)-2-(3,5-Bis-trifluoromethyl-phenyl)-N-[4-(2-chloro-4-fluoro-phenyl)-6-(4-hydroxy-2-hydroxymethyl-pyrrolidin-1-yl)-pyridin-3-yl]-N-methyl-isobutyramide] |  |  | 5.25 nM | 0.933 nM
COc1cc(Cl)cc(C(C)(C)C(=O)N(C)c2cnc(N3C[C@H](O)C[C@H]3CO)cc2-c2ccccc2C)c1 [Example 18, (2S,4R)-2-(3-Chloro-5-methoxy-phenyl)-N-[6-(4-hydroxy-2-hydroxymethyl-pyrrolidin-1-yl)-4-o-tolyl-pyridin-3-yl]-N-methyl-isobutyramide] | 2.51 nM | 1.17 nM |  | 
CN(C(=O)C(C)(C)c1cc(F)cc(F)c1)c1cnc(N2C[C@H](O)C[C@H]2CO)cc1-c1ccccc1Cl [Example 6, (2S,4R)-N-[4-(2-Chloro-phenyl)-6-(4-hydroxy-2-hydroxymethyl-pyrrolidin-1-yl)-pyridin-3-yl]-2-(3,5-difluoro-phenyl)-N-methyl-isobutyramide] | 4.9 nM | 7.24 nM |  | 
CN(C(=O)C(C)(C)c1cc(F)cc(C(F)(F)F)c1)c1cnc(N2CCC[C@H]2CO)cc1-c1ccccc1Cl [Example 4, (S)-N-[4-(2-Chloro-phenyl)-6-(2-hydroxymethyl-pyrrolidin-1-yl)-pyridin-3-yl]-2-(3-fluoro-5-trifluoromethyl-phenyl)-N-methyl-isobutyramide] | 1.55 nM | 4.47 nM |  | 
CN(C(=O)C(C)(C)c1cc(C(F)(F)F)cc(C(F)(F)F)c1)c1cnc(N2CC[C@H](O)[C@H]2CO)cc1-c1ccccc1C(F)(F)F [Example 262, (2R,3S)-2-(3,5-Bis-trifluoromethyl-phenyl)-N-[6-(3-hydroxy-2-hydroxymethyl-pyrrolidin-1-yl)-4-(2-trifluoromethyl-phenyl)-pyridin-3-yl]-N-methyl-isobutyramide] |  |  | 9.77 nM | 7.94 nM
Cc1ccncc1-c1cc(N2CCC[C@H]2CO)ncc1N(C)C(=O)C(C)(C)c1cc(C(F)(F)F)cc(C(F)(F)F)c1 [Example 292, (S)-2-(3,5-Bis-trifluoromethyl-phenyl)-N-[6′-(2-hydroxymethyl-pyrrolidin-1-yl)-4-methyl-[3,4′]bipyridinyl-3′-yl]-N-methyl-isobutyramide] |  |  | 0.776 nM | 3.63 nM
Cc1cc(F)ccc1-c1cc(N2CCNC(=O)CC2)ncc1N(C)C(=O)C(C)(C)c1cc(C(F)(F)F)cc(C(F)(F)F)c1 [Example 164, 2-(3,5-Bis-trifluoromethyl-phenyl)-N-[4-(4-fluoro-2-methyl-phenyl)-6-(5-oxo-[1,4]diazepan-1-yl)-pyridin-3-yl]-N-methyl-isobutyramide] | 15.8 nM | 1.62 nM |  | 
CN(C(=O)C(C)(C)c1cc(C(F)(F)F)cc(C(F)(F)F)c1)c1cnc(N2CC(O)C2)cc1-c1ccccc1Cl [Example 98, 2-(3,5-Bis-trifluoromethyl-phenyl)-N-[4-(2-chloro-phenyl)-6-(3-hydroxy-azetidin-1-yl)-pyridin-3-yl]-N-methyl-isobutyramide] | 3.47 nM | 0.692 nM |  | 
Cc1cc(F)ccc1-c1cc(N2CCS(=O)(=O)CC2CO)ncc1N(C)C(=O)C(C)(C)c1cc(C(F)(F)F)cc(C(F)(F)F)c1 (racemic) [Example 177, (RS)-2-(3,5-Bis-trifluoromethyl-phenyl)-N-[4-(4-fluoro-2-methyl-phenyl)-6-(3-hydroxymethyl-1,1-dioxo-1λ^6-thiomorpholin-4-yl)-pyridin-3-yl]-N-methyl-isobutyramide] | 2.63 nM | 1.2 nM |  | 
Cc1cc(F)ccc1-c1cc(N2CC(=O)C[C@H]2CO)ncc1N(C)C(=O)C(C)(C)c1cc(C(F)(F)F)cc(C(F)(F)F)c1 [Example 296, (S)-2-(3,5-Bis-trifluoromethyl-phenyl)-N-[4-(4-fluoro-2-methyl-phenyl)-6-(2-hydroxymethyl-4-oxo-pyrrolidin-1-yl)-pyridin-3-yl]-N-methyl-isobutyramide] |  |  | 1.74 nM | 2.51 nM
CN(C(=O)C(C)(C)c1cc(C(F)(F)F)cc(C(F)(F)F)c1)c1cnc(N2C[C@@H](O)[C@@H](O)C2)cc1-c1ccccc1Cl [Example 48, (3R,4S)-2-(3,5-Bis-trifluoromethyl-phenyl)-N-[4-(2-chloro-phenyl)-6-(3,4-dihydroxy-pyrrolidin-1-yl)-pyridin-3-yl]-N-methyl-isobutyramide] | 8.71 nM | 0.537 nM |  | 
COc1cc(Cl)cc(C(C)(C)C(=O)N(C)c2cnc(N3CCC[C@H]3CO)cc2-c2ccccc2C)c1 [Example 17, (S)-2-(3-Chloro-5-methoxy-phenyl)-N-[6-(2-hydroxymethyl-pyrrolidin-1-yl)-4-o-tolyl-pyridin-3-yl]-N-methyl-isobutyramide] | 3.16 nM | 3.89 nM |  | 
CN(C(=O)C(C)(C)c1cc(C(F)(F)F)cc(C(F)(F)F)c1)c1cnc(N2C[C@H](O)C[C@H]2CO)cc1-c1ccc(F)c(Cl)c1 [Example 212, (2S,4R)-2-(3,5-Bis-trifluoromethyl-phenyl)-N-[4-(3-chloro-4-fluoro-phenyl)-6-(4-hydroxy-2-hydroxymethyl-pyrrolidin-1-yl)-pyridin-3-yl]-N-methyl-isobutyramide] |  |  | 2.51 nM | 0.813 nM
CN(C(=O)C(C)(C)c1cc(C(F)(F)F)cc(C(F)(F)F)c1)c1cnc(N2CC[C@H](O)C[C@@H]2CO)cc1-c1ccccc1Cl (racemic) [Example 189, (2RS,4SR)-2-(3,5-Bis-trifluoromethyl-phenyl)-N-[4′-(2-chloro-phenyl)-4-hydroxy-2-hydroxymethyl-3,4,5,6-tetrahydro-2H-[1,2′]bipyridinyl-5′-yl]-N-methyl-isobutyramide] | 3.98 nM | 1.51 nM |  | 
CN(C(=O)C(C)(C)c1cc(C(F)(F)F)cc(C(F)(F)F)c1)c1cnc(N2CCC(CO)CC2)cc1-c1ccccc1Cl [Example 52, 2-(3,5-Bis-trifluoromethyl-phenyl)-N-[4′-(2-chloro-phenyl)-4-hydroxymethyl-3,4,5,6-tetrahydro-2H-[1,2′]bipyridinyl-5′-yl]-N-methyl-isobutyramide] | 7.94 nM | 1.1 nM |  | 

— patent publication US8404708B2, “Dual NK1/NK3 receptor antagonists” (Hoffmann-La Roche Inc., priority 2004, dated 2013)
